Columns and labels:
[1] = tested on: Puccinia recondita f. Sp. Tritici; assay: Fungicidal activity against Puccinia recondita f. sp. tritici / wheat / leaf disc curative (brown rust); assay type: in vivo; details: foliar, 24 h, 200 ppm in the applied formulation, wheat leaf segments, curative (applied 1 day after inoculation), compared to untreated control leaf disks, read-out: disease control
Protocol: (§1) Leaf disks or leaf segments of various plant species are cut from plants grown in a greenhouse. The cut leaf disks or segments are placed in multiwell plates (24-well format) onto water agar. The leaf disks are sprayed with a test solution before (preventative) or after (curative) inoculation. Compounds to be tested are prepared as DMSO solutions (max. 10 mg/ml) which are diluted to the appropriate concentration with 0.025% Tween20 just before spraying. The inoculated leaf disks or segments are incubated under defined conditions (temperature, relative humidity, light, etc.) according to the respective test system. A single evaluation of disease level is carried out 3 to 14 days after inoculation, depending on the pathosystem. Percent disease control relative to the untreated check leaf disks or segments is then calculated.
Fungicidal Activity Against Puccinia recondita f. Sp. Tritici/Wheat/Leaf Disc Curative (Brown Rust)
Wheat leaf segments cv. Kanzler are placed on agar in multiwell plates (24-well format). The leaf segments are then inoculated with a spore suspension of the fungus. Plates were stored in darkness at 19° C. and 75% relative humidity. The formulated test compound diluted in water was applied 1 day after inoculation. The leaf segments were incubated at 19° C. and 75% relative humidity under a light regime of 12 hours light/12 hours darkness in a climate cabinet and the activity of a compound was assessed as percent disease control compared to untreated when an appropriate level of disease damage appears in untreated check leaf segments (6 to 8 days after application).
(§2) The following compounds at 200 ppm in the applied formulation give at least 80% disease control in this test when compared to untreated control leaf disks under the same conditions, which show extensive disease development.

[2] = tested on: Glomerella lagenarium (Colletotrichum lagenarium); assay: Fungicidal activity against Glomerella lagenarium (Colletotrichum lagenarium) liquid culture / cucumber / preventative (anthracnose); assay type: cell-based; details: Colletotrichum orbiculare; 20 ppm in the applied formulation; liquid culture (PDB), growth inhibition measured photometrically after 3 to 4 days; compared to untreated control; read-out: disease control
Method in brief: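 Percent activity against the untreated check was derived from photometric growth measurements made 2 to 7 days after conidia in potato dextrose broth were combined with compound at 20 ppm. Cultures were kept dark at 24 °C and 96% humidity.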

[3] = tested on: Puccinia recondita f. Sp. Tritici; assay: Fungicidal activity against Puccinia recondita f. sp. tritici / wheat / leaf disc preventative (brown rust); assay type: in vivo; details: foliar, 200 ppm in the applied formulation, wheat leaf segments, preventative, compared to untreated control leaf disks, read-out: disease control
Protocol: as §1
Fungicidal Activity Against Puccinia recondita f. Sp. Tritici/Wheat/Leaf Disc Preventative (Brown Rust)
Wheat leaf segments cv. Kanzler were placed on agar in multiwell plates (24-well format) and sprayed with the formulated test compound diluted in water. The leaf disks were inoculated with a spore suspension of the fungus 1 day after application. The inoculated leaf segments were incubated at 19° C. and 75% relative humidity (rh) under a light regime of 12 hours light/12 hours darkness in a climate cabinet and the activity of a compound was assessed as percent disease control compared to untreated when an appropriate level of disease damage appears in untreated check leaf segments (7 to 9 days after application).
as §2

CON(Cc1ccc(-c2noc(C(F)(F)F)n2)cc1)C(=O)c1cccc(C(F)(F)F)c1 [Compound 1.13, N-methoxy-3-(trifluoromethyl)-N-[[4-[5-(trifluoromethyl)-1,2,4-oxadiazol-3-yl]phenyl]methyl]-benzamide]
pest or weed control at 200 ppm [1]: ≥ 80% | inhibition of growth at 20 ppm [2]: ≥ 80%

C#CCC(NS(=O)(=O)CC)C(=O)N(Cc1ccc(-c2noc(C(F)(F)F)n2)cc1)C1CC1 (stereo not shown) [Compound 1.137, N-cyclopropyl-2-(ethylsulfonylamino)-N-[[4-[5-(trifluoromethyl)-1,2,4-oxadiazol-3-yl]phenyl]methyl]pent-4-ynamide]
pest or weed control at 200 ppm [1]: ≥ 80%

C#CCN(Cc1ccc(-c2noc(C(F)(F)F)n2)cc1)C(=O)CCc1ccc(Cl)cc1 [Compound 1.160, 3-(4-chlorophenyl)-N-prop-2-ynyl-N-[[4-[5-(trifluoromethyl)-1,2,4-oxadiazol-3-yl]phenyl]methyl]-propanamide]
pest or weed control at 200 ppm [1]: ≥ 80%

CCCC(C)(C)C(=O)N(Cc1ccc(-c2noc(C(F)(F)F)n2)cc1)CC1CC1 [Compound 1.204, N-(cyclopropylmethyl)-2,2-dimethyl-N-[[4-[5-(trifluoromethyl)-1,2,4-oxadiazol-3-yl]phenyl]methyl]-pentanamide]
pest or weed control at 200 ppm [1]: ≥ 80%

CC(C)CC(=O)N(Cc1ccc(-c2noc(C(F)(F)F)n2)cc1)CC1CCCO1 (stereo not shown) [Compound 1.423, 3-methyl-N-(tetrahydrofuran-2-ylmethyl)-N-[[4-[5-(trifluoromethyl)-1,2,4-oxadiazol-3-yl]phenyl]methyl]-butanamide]
inhibition of growth at 20 ppm [2]: ≥ 80% | pest or weed control at 200 ppm [3]: ≥ 80%

O=C(C1CCC1)N(Cc1ccc(-c2noc(C(F)(F)F)n2)cc1)CC1CCCO1 (stereo not shown) [Compound 1.424, N-(tetrahydrofuran-2-ylmethyl)-N-[[4-[5-(trifluoromethyl)-1,2,4-oxadiazol-3-yl]phenyl]methyl]-cyclobutane-carboxamide]
inhibition of growth at 20 ppm [2]: ≥ 80% | pest or weed control at 200 ppm [3]: ≥ 80%

C=CC(=O)N(Cc1ccc(-c2noc(C(F)(F)F)n2)cc1)CC1CCCO1 (stereo not shown) [Compound 1.430, N-(tetrahydrofuran-2-ylmethyl)-N-[[4-[5-(trifluoromethyl)-1,2,4-oxadiazol-3-yl]phenyl]methyl]-prop-2-enamide]
inhibition of growth at 20 ppm [2]: ≥ 80% | pest or weed control at 200 ppm [3]: ≥ 80%

O=C(N(Cc1ccc(-c2noc(C(F)(F)F)n2)cc1)CC1CCCO1)C1(F)CC1 (stereo not shown) [Compound 1.436, 1-fluoro-N-(tetrahydrofuran-2-ylmethyl)-N-[[4-[5-(trifluoromethyl)-1,2,4-oxadiazol-3-yl]phenyl]methyl]-cyclopropane-carboxamide]
inhibition of growth at 20 ppm [2]: ≥ 80% | pest or weed control at 200 ppm [3]: ≥ 80%

CCC(C)C(=O)N(Cc1ccc(-c2noc(C(F)(F)F)n2)cc1)CC1CCCO1 (stereo not shown) [Compound 1.437, 2-methyl-N-(tetrahydrofuran-2-ylmethyl)-N-[[4-[5-(trifluoromethyl)-1,2,4-oxadiazol-3-yl]phenyl]methyl]-butanamide]
inhibition of growth at 20 ppm [2]: ≥ 80% | pest or weed control at 200 ppm [3]: ≥ 80%

CCC(COC)C(=O)N(Cc1ccc(-c2noc(C(F)(F)F)n2)cc1)CC1CCCO1 (stereo not shown) [Compound 1.440, 2-(methoxymethyl)-N-(tetrahydrofuran-2-ylmethyl)-N-[[4-[5-(trifluoromethyl)-1,2,4-oxadiazol-3-yl]phenyl]methyl]-butanamide]
inhibition of growth at 20 ppm [2]: ≥ 80% | pest or weed control at 200 ppm [3]: ≥ 80%

CC(=O)N1CCCC1C(=O)N(Cc1ccc(-c2noc(C(F)(F)F)n2)cc1)CC1CCCO1 (stereo not shown) [Compound 1.444, 1-acetyl-N-(tetrahydrofuran-2-ylmethyl)-N-[[4-[5-(trifluoromethyl)-1,2,4-oxadiazol-3-yl]phenyl]methyl]-pyrrolidine-2-carboxamide]
pest or weed control at 200 ppm [1]: ≥ 80%

O=C(c1ccoc1)N(Cc1ccc(-c2noc(C(F)(F)F)n2)cc1)CC1CCCO1 (stereo not shown) [Compound 1.449, N-(tetrahydrofuran-2-ylmethyl)-N-[[4-[5-(trifluoromethyl)-1,2,4-oxadiazol-3-yl]phenyl]methyl]-furan-3-carboxamide]
inhibition of growth at 20 ppm [2]: ≥ 80% | pest or weed control at 200 ppm [3]: ≥ 80%

CCCCC(=O)N(Cc1ccc(-c2noc(C(F)(F)F)n2)cc1)CC1CCCO1 (stereo not shown) [Compound 1.453, N-(tetrahydrofuran-2-ylmethyl)-N-[[4-[5-(trifluoromethyl)-1,2,4-oxadiazol-3-yl]phenyl]methyl]-pentanamide]
inhibition of growth at 20 ppm [2]: ≥ 80% | pest or weed control at 200 ppm [3]: ≥ 80%

CC(=O)NCC(=O)N(Cc1ccc(-c2noc(C(F)(F)F)n2)cc1)Cc1ccco1 [Compound 1.461, 2-acetamido-N-(2-furylmethyl)-N-[[4-[5-(trifluoromethyl)-1,2,4-oxadiazol-3-yl]phenyl]methyl]-acetamide]
inhibition of growth at 20 ppm [2]: ≥ 80% | pest or weed control at 200 ppm [3]: ≥ 80%

O=C(CCl)N(Cc1ccc(-c2noc(C(F)(F)F)n2)cc1)Cc1ccco1 [Compound 1.462, 2-chloro-N-(2-furylmethyl)-N-[[4-[5-(trifluoromethyl)-1,2,4-oxadiazol-3-yl]phenyl]methyl]-acetamide]
inhibition of growth at 20 ppm [2]: ≥ 80% | pest or weed control at 200 ppm [3]: ≥ 80%

O=C(C1CC1(F)F)N(Cc1ccc(-c2noc(C(F)(F)F)n2)cc1)Cc1ccco1 (stereo not shown) [Compound 1.464, 2,2-difluoro-N-(2-furylmethyl)-N-[[4-[5-(trifluoromethyl)-1,2,4-oxadiazol-3-yl]phenyl]methyl]-cyclopropane-carboxamide]
inhibition of growth at 20 ppm [2]: ≥ 80% | pest or weed control at 200 ppm [3]: ≥ 80%

C=CCN(Cc1ccc(-c2noc(C(F)(F)F)n2)cc1)C(=O)CCl [Compound 1.482, N-allyl-2-chloro-N-[[4-[5-(trifluoromethyl)-1,2,4-oxadiazol-3-yl]phenyl]methyl]-acetamide]
inhibition of growth at 20 ppm [2]: ≥ 80% | pest or weed control at 200 ppm [3]: ≥ 80%

CC(=O)NCC(=O)N(Cc1ccc(-c2noc(C(F)(F)F)n2)cc1)OCC=C(Cl)Cl [Compound 1.537, 2-acetamido-N-(3,3-dichloroallyloxy)-N-[[4-[5-(trifluoromethyl)-1,2,4-oxadiazol-3-yl]phenyl]methyl]-acetamide]
inhibition of growth at 20 ppm [2]: ≥ 80% | pest or weed control at 200 ppm [3]: ≥ 80%

CCC(=O)N(Cc1ccc(-c2noc(C(F)(F)F)n2)cc1)OCc1ccc(Cl)cc1 [Compound 1.550, N-[(4-chlorophenyl)-methoxy]-N-[[4-[5-(trifluoromethyl)-1,2,4-oxadiazol-3-yl]phenyl]methyl]-propanamide]
inhibition of growth at 20 ppm [2]: ≥ 80% | pest or weed control at 200 ppm [3]: ≥ 80%

CON(Cc1ccc(-c2noc(C(F)(F)F)n2)cc1F)C(=O)c1ccccc1Cl [Compound 1.565, 2-chloro-N-[[2-fluoro-4-[5-(trifluoromethyl)-1,2,4-oxadiazol-3-yl]phenyl]methyl]-N-methoxy-benzamide]
inhibition of growth at 20 ppm [2]: ≥ 80% | pest or weed control at 200 ppm [3]: ≥ 80%

CON(Cc1c(F)cc(-c2noc(C(F)(F)F)n2)cc1F)C(=O)c1ccccc1Cl [Compound 1.598, 2-chloro-N-[[2,6-difluoro-4-[5-(trifluoromethyl)-1,2,4-oxadiazol-3-yl]phenyl]methyl]-N-methoxy-benzamide]
inhibition of growth at 20 ppm [2]: ≥ 80% | pest or weed control at 200 ppm [3]: ≥ 80%

CCCCON(Cc1ccc(-c2noc(C(F)(F)F)n2)cc1)C(=O)COC [Compound 1.602, N-butoxy-2-methoxy-N-[[4-[5-(trifluoromethyl)-1,2,4-oxadiazol-3-yl]phenyl]methyl]-acetamide]
inhibition of growth at 20 ppm [2]: ≥ 80% | pest or weed control at 200 ppm [3]: ≥ 80%

CC#CCOC(=O)N(Cc1ccc(-c2noc(C(F)(F)F)n2)cc1)OC [Compound 2.7, but-2-ynyl N-methoxy-N-[[4-[5-(trifluoromethyl)-1,2,4-oxadiazol-3-yl]phenyl]methyl]-carbamate]
inhibition of growth at 20 ppm [2]: ≥ 80% | pest or weed control at 200 ppm [3]: ≥ 80%

CON(Cc1ccc(-c2noc(C(F)(F)F)n2)cc1)C(=O)N1CCCO1 [Compound 3.66, N-methoxy-N-[[4-[5-(trifluoromethyl)-1,2,4-oxadiazol-3-yl]phenyl]methyl]-isoxazolidine-2-carboxamide]
inhibition of growth at 20 ppm [2]: ≥ 80% | pest or weed control at 200 ppm [3]: ≥ 80%

C#CCN(C)C(=O)N(CC)Cc1ccc(-c2noc(C(F)(F)F)n2)cc1 [Compound 3.96, 1-ethyl-3-methyl-3-prop-2-ynyl-1-[[4-[5-(trifluoromethyl)-1,2,4-oxadiazol-3-yl]phenyl]methyl]urea]
inhibition of growth at 20 ppm [2]: ≥ 80% | pest or weed control at 200 ppm [3]: ≥ 80%

— patent publication US11180462B2, “Microbiocidal oxadiazole derivatives” (SYNGENTA PARTICIPATIONS AG, priority 2015, dated 2021)
